Biological target: Peroxisome proliferator-activated receptor alpha (Mesocricetus auratus)
Assay: Agonist activity against hamster Peroxisome proliferator activated receptor alpha

For `CCCc1cc2c(C(F)(F)F)noc2c(CCC)c1OC(C)(C)C(=O)O` [2-(5,7-Dipropyl-3-trifluoromethyl-benzo[d]isoxazol-6-yloxy)-2-methyl-propionic acid], which EC50 is on record?
The EC50 was 0.46 µM.

— BindingDB's records for doi:10.1021/jm048993p (Merck Research Laboratories, 2005)
